How the values were obtained:
[1] = Determination of pH of aspirin samples (USP <791>); type: physicochemical; conditions: 1861.9 mg sample in 5.0 mL USP water, stirred 15 minutes
Description: Determination of the pH of a solution of a formulation disclosed herein may be accomplished by methods known in the art, e.g., as described herein and by standard protocols, e.g., by protocols described in the United States Pharmacopoeia, Chapter <791>.
The pH values of aspirin API and batch nos. F22006-001, F22006-004, F22006-002, F22006-003, and F22006-005 were determined using standard protocols as described in the United States Pharmacopoeia, Chapter <791>. […] The pH of the mixture was measured using a Mettler Toledo pH meter.

[2] = Henderson-Hasselbalch calculation of ionized to non-ionized aspirin at saliva pH
From the text: In its conjugate base/ionized form, aspirin is unable to efficiently cross the mucous membranes in the oral cavity to enter the blood stream, rendering oral mucosal (e.g., sublingual and/or buccal) delivery of ionized aspirin inefficient. The pH of saliva in the oral cavity ranges between 6.2 to 7.6 (Dawood, […]. Saliva and Oral Health. Int. J. Adv. Res. Biol. Sci. 2018, 5, 1-45) depending on the individual, with an average pH of 6.7. The Henderson-Hasselbalch equation, represented by Equation 2 below, provides the ratio of conjugate base to acid at a given pH of an acid having a given pKa. […] Exemplary calculations are provided below. Using the lower saliva pH limit of 6.2 in equation 1: Using the upper saliva pH limit of 7.6 in equation 1: […]

## CC(=O)Oc1ccccc1C(=O)O [Aspirin, 2-acetoxybenzoic acid]
[1]
  pH: 2.62
[2]; average saliva pH value of 6.7, pKa […]
  ionized aspirin molecules for every one molecule of non-ionized aspirin: 1584
[2]; lower saliva pH limit of 6.2, pKa […]
  ionized aspirin molecules for every one molecule of non-ionized aspirin: 501
[2]; upper saliva pH limit of 7.6, pKa […]
  ionized aspirin molecules for every one molecule of non-ionized aspirin: 12589
